Test results as given in patent US4816487A, “1-(2-hydroxyaryl)-alkane-1-on-oximes-procedure of preparation and use in pharmaceuticals” (Humboldt-Universitaet zu Berlin, priority 1985, dated 1989).

Columns and labels:
[1] = target: T1, lipoxygenase from rabbit reticulocytes (Oryctolagus cuniculus, UniProt P12530); assay: inhibition of activity of lipoxygenase from rabbit reticulocytes; assay type: biochemical; settings: for inhibition of rabbit reticulocyte lipoxygenase by known lipoxygenase inhibitors: concentration not given; for IC50: Table 3, in parentheses, read-out: I50-value, lipoxygenase from reticulocytes; for inhibition at 1000 µM: ultimate concentration 1.0 mM; for effect on reticulocyte lipoxygenase: ultimate concentration 1 mM
T1 construct: Lipoxygenase from rabbit reticulocytes was obtained in electrophoretically and immunologically pure form; from tissue; host or cells: rabbit reticulocytes
T1 sequence (P12530 1-663): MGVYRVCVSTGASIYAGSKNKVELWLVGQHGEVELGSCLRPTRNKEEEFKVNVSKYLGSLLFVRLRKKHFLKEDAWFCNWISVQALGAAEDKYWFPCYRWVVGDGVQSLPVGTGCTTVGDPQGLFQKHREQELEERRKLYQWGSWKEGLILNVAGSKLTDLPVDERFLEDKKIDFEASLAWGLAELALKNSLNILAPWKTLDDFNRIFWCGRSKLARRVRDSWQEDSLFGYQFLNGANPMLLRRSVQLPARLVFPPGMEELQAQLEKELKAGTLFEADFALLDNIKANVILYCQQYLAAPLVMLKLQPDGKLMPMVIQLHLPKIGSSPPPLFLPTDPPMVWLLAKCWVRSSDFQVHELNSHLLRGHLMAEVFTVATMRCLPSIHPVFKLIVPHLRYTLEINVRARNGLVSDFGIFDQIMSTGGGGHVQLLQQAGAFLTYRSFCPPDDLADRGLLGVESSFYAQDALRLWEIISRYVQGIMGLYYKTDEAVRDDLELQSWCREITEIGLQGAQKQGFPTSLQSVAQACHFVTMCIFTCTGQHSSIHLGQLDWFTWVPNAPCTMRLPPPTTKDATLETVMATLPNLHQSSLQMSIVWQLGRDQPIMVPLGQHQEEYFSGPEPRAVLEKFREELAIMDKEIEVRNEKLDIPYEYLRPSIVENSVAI
Description: (§1) Persuasive evidence to inhibition of lipoxygenase was produced by a suitable animal lipoxygenase which had been isolated from rabbit reticulocytes, using a method by Rapoport and coworkers /S. M. Rapoport et al., Eur. J. Biochem. 96, 545 (1979)/. A final concentration of 1 mM of most of the compounds, according to this invention, produced inhibition of 90 percent or more (cf. Example 20). Significant inhibition was even recordable from a final concentration of 0.1 mM of some of the compounds, according to this invention. Substance concentrations were varied to determine the titration curves of inhibition and from these the half-inhibition concentrations (I50 -values). A half-inhibition concentration of 7 μM was established for 5-methyl-2-hydroxy-laurophenone-oxime, an oxime of high anti-asthmatic effectiveness.
Inhibition of activity of lipoxygenase from rabbit reticulocytes:
(§2) Lipoxygenase from rabbit reticulocytes was obtained in electrophoretically and immunologically pure form by means of the method described in the literature /S. M. Rapoport et al., Eur. J. Biochem. 96, 545 (1979)/. Lipoxygenase activity was determined at 25° C. by amperometric measurement of oxygen consumption by means of a Clark electrode in the following system: 0.1M potassium phosphate, pH 7.4, with 0.2-per-cent sodium cholate and 0.53 mM linoleic acid. The enzyme concentration was […] in the sample for measurement. The substances submitted for testing were dissolved in methyl glycol (fresh distillation in vacuum) and pre-incubated ten minutes with the enzyme at measurement temperature and in the absence of sodium cholate and linoleic acid. […] No remarkable inhibition occurred to control samples under these conditions. Enzyme reaction was started by addition of sodium cholate and linoleic acid. The titration curve of inhibition and, consequently, the concentrations required for inhibition by the order of 50 per cent were determined by variation of active substance concentrations. For comparison, the compounds were tested also on commercial lipoxygenase-1 from soybean.

[2] = target: T2, lipoxygenase-1 from soybean (Glycine max, UniProt P08170); assay: inhibition of soybean lipoxygenase-1; assay type: biochemical; settings: read-out: Inhibition (percent) of lipoxygenase from soybean; for inhibition at 1000 µM: ultimate concentration 1.0 mM
T2 construct: purchased
T2 sequence (P08170 1-839): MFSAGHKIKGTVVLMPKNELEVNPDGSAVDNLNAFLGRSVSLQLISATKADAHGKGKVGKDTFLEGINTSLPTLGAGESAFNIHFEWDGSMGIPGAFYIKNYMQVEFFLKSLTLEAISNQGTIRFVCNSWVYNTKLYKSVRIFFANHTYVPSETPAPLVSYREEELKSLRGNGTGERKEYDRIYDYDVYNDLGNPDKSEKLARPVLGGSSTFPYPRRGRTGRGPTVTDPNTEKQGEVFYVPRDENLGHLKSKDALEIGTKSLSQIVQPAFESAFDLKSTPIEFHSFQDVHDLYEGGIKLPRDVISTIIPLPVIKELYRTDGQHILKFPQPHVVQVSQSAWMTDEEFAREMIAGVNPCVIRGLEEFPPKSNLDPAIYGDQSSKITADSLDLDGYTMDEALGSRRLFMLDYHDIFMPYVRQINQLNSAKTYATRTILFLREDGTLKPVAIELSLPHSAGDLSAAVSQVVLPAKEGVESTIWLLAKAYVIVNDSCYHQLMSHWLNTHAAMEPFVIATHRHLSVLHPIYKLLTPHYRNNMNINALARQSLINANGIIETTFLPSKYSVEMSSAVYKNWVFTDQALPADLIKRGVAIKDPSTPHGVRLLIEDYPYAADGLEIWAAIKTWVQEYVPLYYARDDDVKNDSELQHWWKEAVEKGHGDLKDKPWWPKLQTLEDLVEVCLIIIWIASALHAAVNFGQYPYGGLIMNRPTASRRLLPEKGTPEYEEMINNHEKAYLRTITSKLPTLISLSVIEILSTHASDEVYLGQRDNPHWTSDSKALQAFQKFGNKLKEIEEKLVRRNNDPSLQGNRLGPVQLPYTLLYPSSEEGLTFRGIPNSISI
Description: as §1, §2

thrombocyte aggregation = assay: inhibition of thrombocyte aggregation induced by arachidonic acid or platelet activation factor; assay type: cell-based, man
Description: Since inhibition of lipoxygenase was identified as molecular point of attack of these new medicaments, studies were conducted also into their action upon thrombocyte aggregation. The substantive role played by the lipoxygenase route in the irreversibility of thrombocyte aggregation is well established at present/C. E. Dutilh et al., Prostaglandins and Medicine 6, 111 (1981)/. A key role in the pathogenesis of thrombotic diseases is attributed to irreversibility of thrombocyte aggregation. […] In the experiments conducted for this invention, thrombocyte aggregation was triggered off either by arachidonic acid or by the platelet activation factor (PAF-acether).
Inhibition of thrombocyte aggregation induced by arachidonic acid or the platelet activation factor:
The compounds were tested for antithrombotic and thrombolytic activity in vitro on the authentic cell system of man. High-thrombocyte plasma was obtained from the blood of clinically healthy donors by 1000×g centrifugation. Thrombocyte aggregation was measured by means of an aggregometer on the basis of diffuse scatter of light or absorption of light by resulting cell aggregates. The high-thrombocyte plasma was pre-incubated with the active substances at 37° C. for three minutes. Thrombocyte aggregation was then triggered off by alternative addition of 0.8 mM of arachidonic acid or 1 μM of platelet activation factor (PAF acether). […]

sensitised guinea pig = settings: cited: C. Armour and D. M. Temple, Agents Action 12, 285 (1982); cited from earlier work
[3] = read-out: Inhibition (percent) of lipoxygenase from reticulocytes

COc1ccc(O)c(C(C)(C)C)c1 [3-tert.-butyl-4-hydroxy-anisol, reference compound]
inhibition of rabbit reticulocyte lipoxygenase by known lipoxygenase inhibitors [1]: inhibited with high effectiveness

CCCCCCCCCCCCCCCCOc1ccc(C(C)=NO)c(O)c1 [4-hexadecyloxy-2-hydroxy-acetophenone-oxime]
IC50 [1]: 500 µM | inhibition at 500 µM ([1]; ultimate concentration 0.5 mM, read-out: Inhibition (percent) of lipoxygenase from reticulocytes): 75% | inhibition at 500 µM ([2]; ultimate concentration 0.5 mM): 38%

CCCCCCOc1ccc(C(C)=NO)c(O)c1 [4-hexyloxy-2-hydroxy-acetophenone-oxime]
IC50 [1]: 260 µM | inhibition at 1000 µM [1, 3]: 100% | inhibition at 1000 µM [2]: 68% | retardation of thrombocyte aggregation (thrombocyte aggregation; 44 μM): retarded aggregation by about two minutes | inhibition of thrombocyte aggregation (thrombocyte aggregation; 60 μM): total inhibition

O=[N+]([O-])c1ccc(O)c(O)c1 [4-nitrocatechol, reference compound]
inhibition of rabbit reticulocyte lipoxygenase by known lipoxygenase inhibitors [1]: inhibited with high effectiveness

CCCCCC#CCC#CCC#CCC#CCCCC(=O)O [5,8,11,14-eicosa-tetraynoic acid, reference compound]
inhibition of rabbit reticulocyte lipoxygenase by known lipoxygenase inhibitors [1]: inhibited with high effectiveness

CCCCCCCCC#CCC#CCC#CCCCC(=O)O [5,8,11-eicosatriynoic acid, reference compound]
inhibition of rabbit reticulocyte lipoxygenase by known lipoxygenase inhibitors [1]: inhibited with high effectiveness

CCCCCC(=NO)c1cc(Cl)ccc1O [5-chloro-2-hydroxy-caprophenone-oxime]
IC50 [1]: 300 µM | inhibition at 1000 µM [1, 3]: 90% | inhibition at 1000 µM [2]: 24%

O=C(O)c1cc(=O)c2c(OCC(O)COc3cccc4oc(C(=O)O)cc(=O)c34)cccc2o1 [disodium-cromoglycate, reference compound]
effect on reticulocyte lipoxygenase [1]: failed to have an effect | comparable anti-asthmatic, anti-allergic, and anti-anaphylactic effects on a whole-animal model (sensitised guinea pig): have not even been known

CN1CCC(=C2c3ccccc3CC(=O)c3sccc32)CC1 [ketotifen, reference compound]
effect on reticulocyte lipoxygenase [1]: failed to have an effect | comparable anti-asthmatic, anti-allergic, and anti-anaphylactic effects on a whole-animal model (sensitised guinea pig): have not even been known

CC(Cc1ccc(O)c(O)c1)C(C)Cc1ccc(O)c(O)c1 (centres unmarked) [nordihydroguaiaretic acid, reference compound]
inhibition of rabbit reticulocyte lipoxygenase by known lipoxygenase inhibitors [1]: inhibited with high effectiveness
